According to patent US7825256B2, “Inducible nitric oxide synthase dimerization inhibitors” (Kalypsys, Inc., priority 2004, dated 2010):

Molecular target: T1, hiNOS (Homo sapiens, UniProt P35228)
T1 construct: expressed in transfected cells; host or cells: HEK293
Experiment: DAN assay, hiNOS expressed in transiently transfected HEK293 cells
Type: cell-based
Settings: HEK293 cells transiently transfected with hiNOS
How it was run: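 Human iNOS, nNOS or eNOS transiently expressed in HEK293 cells, with nNOS and eNOS needing added cofactors for activity. NO production is read as nitrite by fluorometry: 2,3-diaminonaphthalene forms fluorescent […], detecting 10 nM to 10 μM nitrite.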

Work on COc1ccc(CNCCNC(C)c2cc(C)nc(-n3ccnc3)n2)cc1F (stereo not shown) [Example 98, N-(3-Fluoro-4-methoxy-benzyl)-N′-[1-(2-imidazol-1-yl-6-methyl-pyrimidin-4-yl)-ethyl]-ethane-1,2-diamine] yielded an EC50 of less than 1 µM.

With COc1ccc(CNCCNC(C)c2cc(C)nc(-n3ccnc3)n2)cc1O (stereo not shown) [Example 100, 5-({2-[1-(2-Imidazol-1-yl-6-methyl-pyrimidin-4-yl)-ethylamino]-ethylamino}-methyl)-2-methoxy-phenol] the EC50 was less than 50 µM.

In the case of c1cn(-c2nsc(N(CCCNCc3ccc4c(c3)OCO4)Cc3ccc4occc4c3)n2)cn1 [Example 101, N′-Benzo[1,3]dioxol-5-ylmethyl-N-benzofuran-5-ylmethyl-N-(3-imidazol-1-yl-[1,2,4]thiadiazol-5-yl)-propane-1,3-diamine], the EC50 is reported as less than 1 µM.

Work on c1cncc(CN(CCCNCc2ccc3c(c2)OCO3)c2nc(-n3ccnc3)ns2)c1 [Example 102, N′-Benzo[1,3]dioxol-5-ylmethyl-N-(3-imidazol-1-yl-[1,2,4]thiadiazol-5-yl)-N-pyridin-3-ylmethyl-propane-1,3-diamine] yielded an EC50 of less than 1 µM.

Oc1ccc(CN(CCCNCc2ccc3c(c2)OCO3)c2nc(-n3ccnc3)ns2)cc1 [Example 103, 4-{[{3-[(Benzo[1,3]dioxol-5-ylmethyl)-amino]-propyl}-(3-imidazol-1-yl-[1,2,4]thiadiazol-5-yl)-amino]-methyl}-phenol] showed an EC50 of less than 1 µM.

With CSc1ccc(CN(CCCNCc2ccc3c(c2)OCO3)c2nc(-n3ccnc3)ns2)cc1 [Example 104, N′-Benzo[1,3]dioxol-5-ylmethyl-N-(3-imidazol-1-yl-[1,2,4]thiadiazol-5-yl)-N-(4-methylsulfanyl-benzyl)-propane-1,3-diamine] the EC50 was less than 1 µM.

Work on CN(C)c1ccc(CN(CCCNCc2ccc3c(c2)OCO3)c2nc(-n3ccnc3)ns2)cc1 [Example 105, N-Benzo[1,3]dioxol-5-ylmethyl-N′-(4-dimethylamino-benzyl)-N′-(3-imidazol-1-yl-[1,2,4]thiadiazol-5-yl)-propane-1,3-diamine] yielded an EC50 of less than 1 µM.

With Cn1cnc(CN(CCCNCc2ccc3c(c2)OCO3)c2nc(-n3ccnc3)ns2)c1 [Example 106, N′-Benzo[1,3]dioxol-5-ylmethyl-N-(3-imidazol-1-yl-[1,2,4]thiadiazol-5-yl)-N-(1-methyl-1H-imidazol-4-ylmethyl)-propane-1,3-diamine] the EC50 was less than 1 µM.

For Cc1cc(CNC(=O)C2CCCN2Cc2ccc(C(F)(F)F)cc2)nc(-n2ccnc2)n1 (stereo not shown) [Example 107, 1-(4-Trifluoromethyl-benzyl)-pyrrolidine-2-carboxylic acid (2-imidazol-1-yl-6-methyl-pyrimidin-4-ylmethyl)-amide], the EC50 was greater than 50 µM.

Cc1cc(CNC(=O)C2CCCN2Cc2cccc(C(F)(F)F)c2)nc(-n2ccnc2)n1 (stereo not shown) [Example 108, 1-(3-Trifluoromethyl-benzyl)-pyrrolidine-2-carboxylic acid (2-imidazol-1-yl-6-methyl-pyrimidin-4-ylmethyl)-amide] was tested, and the EC50 was greater than 50 µM.

Work on Cc1cc(CNC(=O)C2CCCN2Cc2ccccn2)nc(-n2ccnc2)n1 (stereo not shown) [Example 109, 1-Pyridin-2-ylmethyl-pyrrolidine-2-carboxylic acid (2-imidazol-1-yl-6-methyl-pyrimidin-4-ylmethyl)-amide] yielded an EC50 greater than 50 µM.

With COc1cc(CN2CCCC2C(=O)NCc2cc(C)nc(-n3ccnc3)n2)cc(OC)c1 (stereo not shown) [Example 110, 1-(3,5-Dimethoxy-benzyl)-pyrrolidine-2-carboxylic acid (2-imidazol-1-yl-6-methyl-pyrimidin-4-ylmethyl)-amide] the EC50 was greater than 50 µM.

Cc1cc(CNC(=O)C2CCCN2Cc2ccc(F)cc2)nc(-n2ccnc2)n1 (stereo not shown) [Example 111, 1-(4-Fluoro-benzyl)-pyrrolidine-2-carboxylic acid (2-imidazol-1-yl-6-methyl-pyrimidin-4-ylmethyl)-amide] was tested, and the EC50 was greater than 50 µM.

Compound Cc1cc(CNC(=O)C2CCCN2Cc2ccc(F)c(F)c2)nc(-n2ccnc2)n1 (stereo not shown) [Example 112, 1-(3,4-Difluoro-benzyl)-pyrrolidine-2-carboxylic acid (2-imidazol-1-yl-6-methyl-pyrimidin-4-ylmethyl)-amide] has an EC50 greater than 50 µM.

Compound Cc1cc(CNC(=O)C2CCCN2Cc2ccc(Cl)cc2)nc(-n2ccnc2)n1 (stereo not shown) [Example 113, 1-(4-Chloro-benzyl)-pyrrolidine-2-carboxylic acid (2-imidazol-1-yl-6-methyl-pyrimidin-4-ylmethyl)-amide] has an EC50 of less than 50 µM.

COc1ccc(CN2CCCC2C(=O)NCc2cc(C)nc(-n3ccnc3)n2)cc1O (stereo not shown) [Example 114, 1-(3-Hydroxy-4-methoxy-benzyl)-pyrrolidine-2-carboxylic acid (2-imidazol-1-yl-6-methyl-pyrimidin-4-ylmethyl)-amide] was tested, and the EC50 was greater than 50 µM.

Compound Cc1cc(CNC(=O)C2CCCN2Cc2ccc(OC(C)C)cc2)nc(-n2ccnc2)n1 (stereo not shown) [Example 115, 1-(4-Isopropoxy-benzyl)-pyrrolidine-2-carboxylic acid (2-imidazol-1-yl-6-methyl-pyrimidin-4-ylmethyl)-amide] has an EC50 greater than 50 µM.

With Cc1cc(CNC(=O)C2CCCN2Cc2ccc3c(c2)OCO3)nc(-n2ccnc2)n1 (stereo not shown) [Example 116, 1-Benzo[1,3]dioxol-5-ylmethyl-pyrrolidine-2-carboxylic acid (2-imidazol-1-yl-6-methyl-pyrimidin-4-ylmethyl)-amide] the EC50 was greater than 50 µM.

Cc1cc(CNC(=O)C2CCCN2Cc2ccc(OCCO)cc2)nc(-n2ccnc2)n1 (stereo not shown) [Example 117, 1-[4-(2-Hydroxy-ethoxy)-benzyl]-pyrrolidine-2-carboxylic acid (2-imidazol-1-yl-6-methyl-pyrimidin-4-ylmethyl)-amide] gave an EC50 greater than 50 µM.

Compound Cc1cc(CNC(=O)C2CCCN2Cc2ccco2)nc(-n2ccnc2)n1 (stereo not shown) [Example 118, 1-Furan-2-ylmethyl-pyrrolidine-2-carboxylic acid (2-imidazol-1-yl-6-methyl-pyrimidin-4-ylmethyl)-amide] has an EC50 greater than 50 µM.

Cc1cc(CNC(=O)C2CCCN2Cc2ccsc2)nc(-n2ccnc2)n1 (stereo not shown) [Example 119, 1-Thiophen-3-ylmethyl-pyrrolidine-2-carboxylic acid (2-imidazol-1-yl-6-methyl-pyrimidin-4-ylmethyl)-amide] showed an EC50 greater than 50 µM.

In the case of O=C(NCCc1ccc2c(c1)OCCO2)[C@H]1CCCN1c1nc(-n2ccnc2)ns1 [Example 120, 1-(3-Imidazol-1-yl-[1,2,4]thiadiazol-5-yl)-pyrrolidine-2-carboxylic acid [2-(2,3-dihydro-benzo[1,4]dioxin-6-yl)-ethyl]-amide], the EC50 is reported as less than 1 µM.

Work on CC(C)[C@@H](Nc1nc(-n2ccnc2)ns1)C(=O)NCCc1ccc2c(c1)OCO2 [Example 122, (R)—N-(2-Benzo[1,3]dioxol-5-yl-ethyl)-2-(3-imidazol-1-yl-[1,2,4]thiadiazol-5-ylamino)-3-methyl-butyramide] yielded an EC50 of less than 1 µM.

O=C(NCCc1ccc2c(c1)OCCO2)[C@H]1C[C@@H](O)CN1c1nc(-n2ccnc2)ns1 [Example 123, (2R,4R)-4-Hydroxy-1-(3-imidazol-1-yl-[1,2,4]thiadiazol-5-yl)-pyrrolidine-2-carboxylic acid [2-(2,3-dihydro-benzo[1,4]dioxin-6-yl)-ethyl]-amide] showed an EC50 of less than 1 µM.

With Cc1cc(C2C(C(=O)NCCc3ccc4c(c3)OCCO4)CCN2C)nc(-n2ccnc2)n1 (stereo not shown) [Example 124, 2-(2-Imidazol-1-yl-6-methyl-pyrimidin-4-yl)-1-methyl-pyrrolidine-3-carboxylic acid [2-(2,3-dihydro-benzo[1,4]dioxin-6-yl)-ethyl]-amide] the EC50 was less than 1 µM.
